According to the supplement of paper PMC10307832:

Columns and labels:
Experiment in all cases: relative viability (nuclei count vs DMSO), 5 days (fraction); higher = more cells survive
Metformin = compound: CN(C)C(=N)NC(=N)N [Metformin]
How it was run: (§1)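 On vehicle-anchored 1536-well plates, lung cancer cell lines held overnight at 37 °C were pinned with five library-drug doses (not always all listed) spaced by √10. With no medium change over 5 days, they were then fixed, permeabilised and Hoechst-stained in one step and imaged at 4×. MetaXpress counted nuclei, and viability is the median across plates of treated-well over vehicle-well nuclei. Acceptance needed control CV below 25% and at least one doubling.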

Apatinib = compound: N#CC1(c2ccc(NC(=O)c3cccnc3NCc3ccncc3)cc2)CCCC1 [Apatinib]
How it was run: as §1

Apatinib + Pemetrexed = compound: N#CC1(c2ccc(NC(=O)c3cccnc3NCc3ccncc3)cc2)CCCC1 [Apatinib] + Nc1nc2[nH]cc(CCc3ccc(C(=O)N[C@@H](CCC(=O)O)C(=O)O)cc3)c2c(=O)[nH]1 [Pemetrexed] (partner 0.2 µM)
How it was run: (§2)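 Relative viability is defined as nuclei in treated wells over nuclei in vehicle wells. Duplicate plates were run and medians reported. Lung cancer cell lines in 1536-well plates were dosed by pin tool one day after seeding, with one drug or with a fixed anchor-drug dose plus five library-drug doses (not always all listed) in √10 steps, and nuclei were counted after 5 days.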

Metformin + OSI-027 = compound: CN(C)C(=N)NC(=N)N [Metformin] + COc1cccc2cc(-c3nc([C@H]4CC[C@H](C(=O)O)CC4)n4ncnc(N)c34)[nH]c12 [OSI-027] (partner 0.5 µM)
How it was run: as §2

For LC-2-ad, the relative viability (Metformin; 31.62 µM) was 1.01, the relative viability (Metformin; 100 µM) was 0.943 and the relative viability (Metformin; 316.23 µM) was 0.8. For the same cell line, the relative viability (Metformin; 1000 µM) was 0.767, the relative viability (Apatinib; 0.08 µM) was 0.931 and the relative viability (Apatinib; 0.253 µM) was 0.991. For the same cell line, the relative viability (Apatinib; 0.8 µM) was 0.911, the relative viability (Apatinib; 2.53 µM) was 0.856 and the relative viability (Apatinib; 8 µM) was 0.819. It also gave a relative viability (Apatinib + Pemetrexed; first compound 0.08 µM) of 0.248, a relative viability (Apatinib + Pemetrexed; first compound 0.253 µM) of 0.299 and a relative viability (Apatinib + Pemetrexed; first compound 0.8 µM) of 0.259. For the same cell line, the relative viability (Apatinib + Pemetrexed; first compound 2.53 µM) was 0.267, the relative viability (Apatinib + Pemetrexed; first compound 8 µM) was 0.233 and the relative viability (Metformin + OSI-027; first compound 31.62 µM) was 0.69. For the same cell line, the relative viability (Metformin + OSI-027; first compound 100 µM) was 0.693, the relative viability (Metformin + OSI-027; first compound 316.23 µM) was 0.531 and the relative viability (Metformin + OSI-027; first compound 1000 µM) was 0.588.

NCI-H2170 showed a relative viability (Metformin; 10 µM) of 0.787, a relative viability (Metformin; 31.62 µM) of 0.882 and a relative viability (Metformin; 100 µM) of 0.907. The relative viability (Metformin; 316.23 µM) was 0.957, the relative viability (Metformin; 1000 µM) was 1.01 and the relative viability (Apatinib; 0.08 µM) was 0.981. It also gave a relative viability (Apatinib; 0.253 µM) of 1.01, a relative viability (Apatinib; 0.8 µM) of 0.909 and a relative viability (Apatinib; 2.53 µM) of 0.89. It also gave a relative viability (Apatinib; 8 µM) of 0.886, a relative viability (Apatinib + Pemetrexed; first compound 0.08 µM) of 0.288 and a relative viability (Apatinib + Pemetrexed; first compound 0.253 µM) of 0.275. The relative viability (Apatinib + Pemetrexed; first compound 0.8 µM) was 0.262, the relative viability (Apatinib + Pemetrexed; first compound 2.53 µM) was 0.224 and the relative viability (Apatinib + Pemetrexed; first compound 8 µM) was 0.251. For the same cell line, the relative viability (Metformin + OSI-027; first compound 10 µM) was 0.566, the relative viability (Metformin + OSI-027; first compound 31.62 µM) was 0.52 and the relative viability (Metformin + OSI-027; first compound 100 µM) was 0.683. The relative viability (Metformin + OSI-027; first compound 316.23 µM) was 0.673 and the relative viability (Metformin + OSI-027; first compound 1000 µM) was 0.711.

LCLC-97TM1 showed a relative viability (Metformin; 10 µM) of 0.725, a relative viability (Metformin; 31.62 µM) of 0.978 and a relative viability (Metformin; 100 µM) of 0.988. For the same cell line, the relative viability (Metformin; 316.23 µM) was 0.843, the relative viability (Metformin; 1000 µM) was 1.25 and the relative viability (Apatinib; 0.08 µM) was 0.792. The relative viability (Apatinib; 0.253 µM) was 0.882, the relative viability (Apatinib; 0.8 µM) was 1.02 and the relative viability (Apatinib; 2.53 µM) was 0.785. For the same cell line, the relative viability (Apatinib; 8 µM) was 0.662, the relative viability (Apatinib + Pemetrexed; first compound 0.08 µM) was 0.179 and the relative viability (Apatinib + Pemetrexed; first compound 0.253 µM) was 0.139. It also gave a relative viability (Apatinib + Pemetrexed; first compound 0.8 µM) of 0.161, a relative viability (Apatinib + Pemetrexed; first compound 2.53 µM) of 0.141 and a relative viability (Apatinib + Pemetrexed; first compound 8 µM) of 0.146. The relative viability (Metformin + OSI-027; first compound 10 µM) was 0.647, the relative viability (Metformin + OSI-027; first compound 31.62 µM) was 0.58 and the relative viability (Metformin + OSI-027; first compound 100 µM) was 0.537. For the same cell line, the relative viability (Metformin + OSI-027; first compound 316.23 µM) was 0.487 and the relative viability (Metformin + OSI-027; first compound 1000 µM) was 0.711.

NCI-H1993 showed a relative viability (Metformin; 10 µM) of 1.03, a relative viability (Metformin; 31.62 µM) of 0.892 and a relative viability (Metformin; 100 µM) of 1. The relative viability (Metformin; 316.23 µM) was 0.872, the relative viability (Metformin; 1000 µM) was 1.07 and the relative viability (Apatinib; 0.08 µM) was 1.01. For the same cell line, the relative viability (Apatinib; 0.253 µM) was 0.923, the relative viability (Apatinib; 0.8 µM) was 0.889 and the relative viability (Apatinib; 2.53 µM) was 0.833. For the same cell line, the relative viability (Apatinib; 8 µM) was 0.869, the relative viability (Apatinib + Pemetrexed; first compound 0.08 µM) was 0.593 and the relative viability (Apatinib + Pemetrexed; first compound 0.253 µM) was 0.566. The relative viability (Apatinib + Pemetrexed; first compound 0.8 µM) was 0.605, the relative viability (Apatinib + Pemetrexed; first compound 2.53 µM) was 0.549 and the relative viability (Apatinib + Pemetrexed; first compound 8 µM) was 0.549. For the same cell line, the relative viability (Metformin + OSI-027; first compound 10 µM) was 0.587, the relative viability (Metformin + OSI-027; first compound 31.62 µM) was 0.603 and the relative viability (Metformin + OSI-027; first compound 100 µM) was 0.554. For the same cell line, the relative viability (Metformin + OSI-027; first compound 316.23 µM) was 0.507 and the relative viability (Metformin + OSI-027; first compound 1000 µM) was 0.514.

With NCI-H520 the relative viability (Metformin; 10 µM) was 1.08, the relative viability (Metformin; 31.62 µM) was 0.928 and the relative viability (Metformin; 100 µM) was 1.18. It also gave a relative viability (Metformin; 316.23 µM) of 0.889, a relative viability (Metformin; 1000 µM) of 1.03 and a relative viability (Apatinib; 0.08 µM) of 1.11. The relative viability (Apatinib; 0.253 µM) was 0.945, the relative viability (Apatinib; 0.8 µM) was 1.01 and the relative viability (Apatinib; 2.53 µM) was 0.813. The relative viability (Apatinib; 8 µM) was 0.81, the relative viability (Apatinib + Pemetrexed; first compound 0.08 µM) was 0.668 and the relative viability (Apatinib + Pemetrexed; first compound 0.253 µM) was 0.678. It also gave a relative viability (Apatinib + Pemetrexed; first compound 0.8 µM) of 0.736, a relative viability (Apatinib + Pemetrexed; first compound 2.53 µM) of 0.552 and a relative viability (Apatinib + Pemetrexed; first compound 8 µM) of 0.322. The relative viability (Metformin + OSI-027; first compound 10 µM) was 0.306, the relative viability (Metformin + OSI-027; first compound 31.62 µM) was 0.35 and the relative viability (Metformin + OSI-027; first compound 100 µM) was 0.322. The relative viability (Metformin + OSI-027; first compound 316.23 µM) was 0.28 and the relative viability (Metformin + OSI-027; first compound 1000 µM) was 0.348.

NCI-H1650 was tested, and the relative viability (Metformin; 10 µM) was 1.09, the relative viability (Metformin; 31.62 µM) was 0.865 and the relative viability (Metformin; 100 µM) was 1.17. The relative viability (Metformin; 316.23 µM) was 1.03, the relative viability (Metformin; 1000 µM) was 0.931 and the relative viability (Apatinib; 0.08 µM) was 0.904. The relative viability (Apatinib; 0.253 µM) was 1.01, the relative viability (Apatinib; 0.8 µM) was 0.86 and the relative viability (Apatinib; 2.53 µM) was 0.832. For the same cell line, the relative viability (Apatinib; 8 µM) was 0.824, the relative viability (Apatinib + Pemetrexed; first compound 0.08 µM) was 0.386 and the relative viability (Apatinib + Pemetrexed; first compound 0.253 µM) was 0.347. For the same cell line, the relative viability (Apatinib + Pemetrexed; first compound 0.8 µM) was 0.325, the relative viability (Apatinib + Pemetrexed; first compound 2.53 µM) was 0.37 and the relative viability (Apatinib + Pemetrexed; first compound 8 µM) was 0.378. It also gave a relative viability (Metformin + OSI-027; first compound 10 µM) of 0.887, a relative viability (Metformin + OSI-027; first compound 31.62 µM) of 0.889 and a relative viability (Metformin + OSI-027; first compound 100 µM) of 0.837. The relative viability (Metformin + OSI-027; first compound 316.23 µM) was 0.771 and the relative viability (Metformin + OSI-027; first compound 1000 µM) was 0.38.
